Results: patent publication EP4516298A1, “STILBENE COMPOUNDS FOR USE IN THE TREATMENT AND PREVENTION OF INFECTIONS WITH CYTOMEGALOVIRUS (CMV)” (Szekeres, Thomas, priority 2023, dated 2025)
pIC50: −log10 of the molar value.

Key:
HCMV strain AD169 = experiment: Functional plaque reduction assay in HFF infected with human CMV; assay type: cell-based; details: for inhibition of CMV replication: plaque reduction assays in HFF treated with decreasing concentrations (Fig. 1-4)
Description: For the plaque reduction assay, HFF were seeded to 100 % confluency and then pre-treated with compound M8 at 8 different concentrations. HFF were subsequently infected with CMV strain AD169, washed and again incubated with two-fold dilutions of the compound. All experiments were done in triplicates (arrow bars show SEM). […] For the plaque reduction assay, HFF were seeded to 100 % confluency. The virus preparation of CMV strain AD169 was pretreated before infection of cells with compound M8 at 8 different concentrations. HFF were subsequently infected with CMV strain AD169, washed and again incubated with two-fold dilutions of the compound. All experiments were done in triplicates (arrow bars show SEM). […] For the plaque reduction assay HFF were seeded to 100 % confluency and subsequently infected with CMV strain AD169. Cells were washed thereafter and incubated with two-fold dilutions of the compound GCV. All experiments were done in triplicates (arrow bars show SEM). […] For the plaque reduction assay HFF were seeded to 100 % confluency and then pre-treated with compound RES at 8 different concentrations. HFF were subsequently infected with CMV strain AD169, washed and again incubated with two-fold dilutions of the compound. All experiments were done in triplicates (arrow bars show SEM).
HCMV strain AD169 was prepared as described previously (Rieder et al., J. Gen. Virol. 98 (2017), 471-485). For virus production, HFF were grown to confluence and subsequently infected with HCMV AD169 at a multiplicity of infection (MOI) of 0.01. The viral inoculum was replaced by culture medium after 90 min. Upon visibility of a total cytopathic effect (CPE) (usually 8-10 days post-infection), the viral supernatant was harvested and stored at - 80°C. After thawing, cell debris was removed by centrifugation at 3,000 g for 20 min. Infectivity of the viral inoculum was then measured using a plaque assay as described elsewhere (Britt, Curr. Protoc. Microbiol. (2010), 14E.3). […] Ganciclovir (Merck Millipore) was added at the indicated concentrations after removal of the inoculum. The cells were then overlaid with growth medium containing 0.5% low-melting point agarose. After solidification of the agarose layer, the plates were incubated for 10 days at 37°C in a CO2 incubator, then fixed with 2% formaldehyde and analysed for number of plaques after staining with 1:5 diluted Mayer's Hemalaun. Plaque numbers were normalized to the mean of DMSO-treated control samples. IC50 values were calculated with Graphpad Prism (dose-response inhibition).

HFF = experiment: Toxicity of the compounds to HFF (inhibition of cellular metabolism); assay type: cell-based, human
[1] = treatment of HFF after CMV infection, CMV strain AD169
[2] = Human betaherpesvirus 5, AD169, cells (HFF) pretreated with compound for 90 min, CMV strain AD169, plaques counted after 10 days
[3] = cells (HFF) pretreated with compound, CMV strain AD169
[4] = virus pretreated with compound, CMV strain AD169

Row | Structure (SMILES) | inhibition of CMV replication (HCMV strain AD169) | concentration of complete inhibition (HCMV strain AD169; [1]) [µM] | concentration of initial inhibitory effect (HCMV strain AD169; [1]) [µM] | pIC50 (HCMV strain AD169; [2]) | pIC50 (HCMV strain AD169; Human betaherpesvirus 5, AD169, virus pretreated with compound for 90 min before infection of HFF, CMV strain AD169) | concentration at which some inhibition of CMV was noted (HCMV strain AD169; [3]) [µM] | concentration of complete inhibition of CMV (HCMV strain AD169; [3]) [µM] | concentration at which inhibition was noticed (HCMV strain AD169; [4]) [µM] | concentration of maximum inhibition (HCMV strain AD169; [4]) [µM] | concentration found to be toxic to the HFF (HFF) [µM]
1 | Nc1nc(O)c2ncn(COC(CO)CO)c2n1 [GCV, Ganciclovir, reference compound] | significant inhibition | ≥ 5 | 0.156 |  |  |  |  |  |  | 
2 | Oc1cc(/C=C/c2cc(O)c(O)c(O)c2)cc(O)c1O [M8, 3,3',4,4',5,5'-hexahydroxy-trans-stilbene] | significant inhibition |  |  | ~4.43 | ~5.52 | 12.5 | 100 | 6.25 | 25 | > 100
3 | Oc1ccc(C=Cc2cc(O)cc(O)c2)cc1 [RES, resveratrol, reference compound] | significant inhibition |  |  | ~4.00 |  | 6.25 |  |  |  | > 100
